One block for each compound: values may come before it.
Tests used:
primary SLL cells = test: Cytotoxicity in primary SLL cells (Cell Titer Glo); format: cell-based, human; conditions: 48 hours, 2.5, 5, and 7.5 nM
[1] = tested on: PI3K-AKT-mTOR-eIF4F-Myc signal cascade in LY10 cells; conditions: LY10, 24 h, PI3K inhibitors 3 μM, proteasome inhibitors 2 nM, single or combined
primary AITL cells = test: Cytotoxicity in primary AITL cells; format: cell-based, human
DLBCL cell line LY10 = test: Growth inhibition / viability of LY10 cells (CellTiter Glo), single agents and combinations, Bliss synergy; format: cell-based, human; conditions: LY10, 24 h, single agent
CK1ε [2] = biological target: T1, CK1ε (Homo sapiens, UniProt P49674); test: CK1ε autophosphorylation assay (calyculin A, Western blot); format: cell-based; design: Full-length recombinant human CK1ε (CK1epsilon) was expressed by baculovirus in Sf9 insect cells; GST (N); purchased Promega; host or cells: Sf9 insect cells (baculovirus)
Western blot, LY7 cells = format: cell-based, human; conditions: LY7 and LY10, 24 h
[3] = tested on: phosphorylation of 4EBP1 and protein level of c-Myc in LY7 cells; test: Western blot, LY7 cells; format: cell-based, human; conditions: for expression of c-Myc at 24 h: single agents
CK1ε [4] = biological target: T1, CK1ε; test: CK1ε kinase activity assay (ADP-Glo, Promega)
CK1ε [5] = biological target: T1, CK1ε; test: Kinome profiling (Reaction Biology, radioisotope filter binding); conditions: cell free, 1 μM
DLBCL cell line LY7 = test: LY7 viability (Cell Titer Glo); format: cell-based, human; conditions: for activity inhibiting LY7 lymphoma cells (viability): 24 h, 10-50 μM, single agents
[6] = tested on: primary CLL and MCL cells; test: Cytotoxicity in primary CLL and MCL cells; conditions: 48 hours
caspase 3/7 = test: Activation of caspase 3/7 in LY10; format: cell-based, human; conditions: LY10, 24 h
Description: FIG. 3. […] FIG. 3L-N: PARP cleavage.

patients with DLBCL [7] = conditions: 9 patients; Westin 2014; cited from earlier work
[8] = tested on: cap dependent translation downstream of the 5′ UTR of c-MYC; test: Bicistronic luciferase reporter assay for c-Myc 5'UTR driven translation in LY7; format: cell-based, human; conditions: LY7 stably expressing reporter, 24 hr, 25 μM
[9] = tested on: phosphorylated AKT at Ser473; test: Inhibition of S473 p-AKT in serum-starved leukemia and lymphoma cell lines; format: cell-based, human; conditions: 1 μM, 4 hours
patients with DLBCL [10] = test: Clinical trials in patients with DLBCL; format: in vivo, human
MOLT-4 cell line = test: Subcutaneous xenograft model of T-ALL (MOLT-4) in NOD/SCID mice; format: in vivo; conditions: daily oral 150 mg/kg, day 24, p<0.001

T1 sequence (P49674 whole entry): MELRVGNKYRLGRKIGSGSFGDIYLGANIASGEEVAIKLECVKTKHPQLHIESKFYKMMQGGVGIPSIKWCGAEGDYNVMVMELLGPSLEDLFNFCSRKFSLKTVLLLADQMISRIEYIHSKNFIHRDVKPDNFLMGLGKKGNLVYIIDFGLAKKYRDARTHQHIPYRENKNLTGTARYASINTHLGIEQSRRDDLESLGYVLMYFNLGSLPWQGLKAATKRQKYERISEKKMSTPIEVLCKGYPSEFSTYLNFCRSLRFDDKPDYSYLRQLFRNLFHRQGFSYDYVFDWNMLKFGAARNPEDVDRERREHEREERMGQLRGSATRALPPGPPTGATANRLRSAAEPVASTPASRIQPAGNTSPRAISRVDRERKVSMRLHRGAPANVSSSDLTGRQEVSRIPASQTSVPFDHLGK

Structure (SMILES): CC(C)C[C@H](NC(=O)[C@H](Cc1ccccc1)NC(=O)c1cnccn1)B(O)O [Bortezomib, [(1R)-3-methyl-1-({(2S)-3-phenyl-2-[(pyrazin-2-ylcarbonyl)amino]propanoyl}amino)butyl]boronic acid]
inhibition of primary cells (primary SLL cells): 10-80%
inhibition of phosphorylation of 4EBP1 [1]: marginal or no inhibition
inhibition of phosphorylation of AKT [1]: comparable and modest inhibition
single agent activity in AITL (primary AITL cells): more potent than carfilzomib
percentage of growth inhibition (DLBCL cell line LY10; 1 to 3 nM): did not produce significant inhibition
percentage of growth inhibition (DLBCL cell line LY10; 4 to 8 nM): 42-90%

Structure (SMILES): CC(C)Oc1ccc(-c2nn([C@@H](C)c3nc4cccc(F)c4c(=O)n3-c3ccccc3)c3ncnc(N)c23)cc1F [CUX-03173]
autophosphorylation of CK1ε (CK1ε [2]; LY7, 15 μM, then calyculin A): inhibited
beta-catenin level (Western blot, LY7 cells): inhibited beta-catenin
reduction of protein level of c-Myc ([3]; LY7, 24 h): more effective than idelalisib and PF4800567
inhibition of protein level of c-Myc ([3]; LY7 and LY10, 24 h): as potent as TGR-1202
IC50 (CK1ε [4]): 9.4 µM

Structure (SMILES): CC(C)C[C@H](NC(=O)[C@H](CCc1ccccc1)NC(=O)CN1CCOCC1)C(=O)N[C@@H](Cc1ccccc1)C(=O)N[C@@H](CC(C)C)C(=O)[C@@]1(C)CO1 [Carfilzomib, (S)-4-methyl-N—((S)-1-(((S)-4-methyl-1-((R)-2-methyloxiran-2-yl)-1-oxopentan-2-yl)amino)-1-oxo-3-phenylpropan-2-yl)-2-((S)-2-(2-morpholinoacetamido)-4-phenylbutanamido)pentanamide]
inhibition of primary cells (primary SLL cells): 10-90%
inhibition of phosphorylation of 4EBP1 [1]: marginal or no inhibition
inhibition of phosphorylation of AKT [1]: comparable and modest inhibition
percentage of growth inhibition (DLBCL cell line LY10; 1 to 2 nM): up to 35%

inhibition of kinase activity of CK1 epsilon (CK1ε [5]): not observed
Structure (SMILES): CC(Nc1ncnc2[nH]cnc12)c1cc2cccc(Cl)c2c(=O)n1-c1ccccc1 (stereo not drawn) [IPI-145]

Structure (SMILES): CC[C@H](Nc1ncnc2nc[nH]c12)c1nc2cccc(F)c2c(=O)n1-c1ccccc1 [Idelalisib]
activity inhibiting LY7 lymphoma cells (viability) (DLBCL cell line LY7): only mild and comparable activity
suppression of phosphorylation of 4EBP1 and protein level of c-Myc ([3]; LY7, 6 hours, 25-50 μM): only at the concentration of 50 μM
expression of c-Myc at 24 h ([3]; LY7, 24 h): rebounded
inhibition of kinase activity of CK1 epsilon (CK1ε [5]): not observed
enhancement of cytotoxicity of bortezomib [6]: did not enhance
inhibition of phosphorylation of 4EBP1 [1]: moderately inhibit
inhibition of phosphorylation of AKT [1]: more effective than TGR-1202
IC50 (CK1ε [4]): > 50 µM
effect on caspase activation caused by bortezomib (caspase 3/7; 5 μM added to bortezomib): failed to augment
responses in patients with DLBCL (patients with DLBCL [7]): did not produce any responses
single agent activity in AITL (primary AITL cells): more effective than TGR-1202

Structure (SMILES): Nc1ncnc2c1c(COc1cccc(Cl)c1)nn2C1CCOCC1 [PF4800567]
activity inhibiting LY7 lymphoma cells (viability) (DLBCL cell line LY7): only mild and comparable activity
autophosphorylation of CK1ε (up-shifting of the CK1ε band) (CK1ε [2]; LY7, 1 μM, 1 h pretreatment then calyculin A): no up-shifting
suppression of phosphorylation of 4EBP1 and protein level of c-Myc ([3]; LY7, 6 hours, 25-50 μM): only at the concentration of 50 μM
phosphorylation of p70S6K1 ([3]; LY7, 24 h): substantially increased
reduction of ratio of LucR/LucF by 50% [8]: not
IC50 (CK1ε [4]): 0.0074 µM

Structure (SMILES): CC(C)n1nc(-c2cc3cc(O)ccc3[nH]2)c2c(N)ncnc21 [PP242]
phosphorylation of p70S6K1 ([3]; LY7, 24 h): potently inhibited
phosphorylation of 4EBP1 at S65 ([3]; LY7, 24 h, 750 nM): markedly inhibited
level of c-Myc ([3]; LY7, 24 h, PP242 treatment): moderately reduced

Structure (SMILES): CC(C)Oc1ccc(-c2nn([C@@H](C)c3oc4ccc(F)cc4c(=O)c3-c3cccc(F)c3)c3ncnc(N)c23)cc1F [TGR-1202]
activity inhibiting LY7 lymphoma cells (viability) (DLBCL cell line LY7): significantly more effective than idelalisib and PF4800567
potency in cytotoxicity assay (DLBCL cell line LY7; LY7, 24 h): most potent among these compounds
synergy with PP242 inhibiting phosphorylation of 4EBP1 at T70 and cell viability (DLBCL cell line LY7; LY7, PP […], other drugs 5 and 15 μM): synergistic with PP242
beta-catenin level (Western blot, LY7 cells): inhibited beta-catenin
suppression of phosphorylation of 4EBP1 and protein level of c-Myc ([3]; LY7, 6 h, 15-50 μM): more potent than idelalisib and PF4800567
suppression of phosphorylation of 4EBP1 and protein level of c-Myc ([3]; LY7, 6 hours, 25-50 μM): potently suppressed
reduction of protein level of c-Myc ([3]; LY7, 24 h): more effective than idelalisib and PF4800567
inhibition of phosphorylation of 4EBP1 and protein level of c-Myc ([3]; LY7, 24 h, 25 μM): highly effective
expression of c-Myc at 24 h ([3]; LY7, 24 h): not relieved
reduction of phosphorylation of AKT (Ser473) [9]: 43-87%
partial response in patients with DLBCL (patients with DLBCL [10]): 3 of 14
inhibition of phosphorylation of 4EBP1 [1]: moderately inhibit
IC50 (CK1ε [4]): 6 µM
effect on caspase 3/7 activation by carfilzomib (caspase 3/7; 1 μM added to carfilzomib): markedly enhanced
tumor response in xenograft (MOLT-4 cell line): significantly shrank the tumors

— patent US20190070183A1, “Targeting Casein Kinase-1 and PI3K/AKT/mTOR Pathways for Treatment of c-Myc-Overexpressing Cancers, Organ Transplant Associated Complications and Autoimmune Diseases” (The Trustees of Columbia University in the City of New York, priority 2015, published 2019)
